According to patent US20100022574A1, “Methods to Treat Pain Using an Alpha-2 Adrenergic Agonist and an Endothelin Antagonist” (EndogenX, Inc., priority 2008, published 2010):
“Also recorded” adds a separate entry of the source. Where a name gives a salt, the structure may show the parent alone. Read-outs that look alike come from different tables or passages of the source.

Legend:
[1] = cited from earlier work
ETA receptors = molecular target: T1, ETA receptors (Homo sapiens, UniProt P25101); conditions: membrane preparations; read-out: IC50, inhibition of binding of ET-1 to ETA receptors; cited from earlier work
T1 sequence (P25101 21-427): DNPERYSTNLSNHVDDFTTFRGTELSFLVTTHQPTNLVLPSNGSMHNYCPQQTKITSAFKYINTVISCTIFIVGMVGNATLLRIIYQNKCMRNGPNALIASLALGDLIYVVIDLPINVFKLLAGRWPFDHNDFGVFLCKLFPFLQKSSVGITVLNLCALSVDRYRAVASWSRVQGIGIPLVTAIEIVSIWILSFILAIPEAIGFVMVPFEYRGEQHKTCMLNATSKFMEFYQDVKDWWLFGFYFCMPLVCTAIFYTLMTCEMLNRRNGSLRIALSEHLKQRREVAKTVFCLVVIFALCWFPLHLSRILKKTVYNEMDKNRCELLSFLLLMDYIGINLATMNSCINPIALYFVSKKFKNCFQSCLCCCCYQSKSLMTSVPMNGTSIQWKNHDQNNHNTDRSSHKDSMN

[2] = cited from earlier work; remark: listed apart in the source
ETB receptors = molecular target: T2, ETB receptors (Homo sapiens, UniProt P24530); conditions: membrane preparations; read-out: IC50, inhibition of binding of ET-1 to ETB receptors; cited from earlier work
T2 sequence (P24530 27-442): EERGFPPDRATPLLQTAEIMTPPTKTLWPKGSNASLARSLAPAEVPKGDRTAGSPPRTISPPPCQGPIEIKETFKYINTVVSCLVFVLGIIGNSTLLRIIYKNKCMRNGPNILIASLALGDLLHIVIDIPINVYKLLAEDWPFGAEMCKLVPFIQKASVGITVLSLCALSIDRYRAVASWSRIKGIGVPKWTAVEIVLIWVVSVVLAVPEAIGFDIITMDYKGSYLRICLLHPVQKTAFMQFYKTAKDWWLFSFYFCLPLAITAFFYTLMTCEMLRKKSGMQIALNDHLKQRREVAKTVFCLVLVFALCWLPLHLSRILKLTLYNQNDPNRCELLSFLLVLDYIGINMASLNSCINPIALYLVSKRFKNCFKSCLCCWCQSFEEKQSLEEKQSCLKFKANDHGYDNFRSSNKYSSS

Male Swiss Webster mice = assay: Tail-flick latency (antinociception) in mice; conditions: for tail flick latency, fold above vehicle: clonidine 0.3 mg/ml
I1-imidazoline receptors = conditions: cited from earlier work
healthy volunteers = conditions: clonidine 0.2 mg p.o., alone or with naloxone; cited from earlier work
[3] = system: patients after spinal fusion; conditions: cited from earlier work
goats = conditions: epidural; cited from earlier work
rats = conditions: for effect on morphine analgesia in rats treated with BMS182874 / effect on oxycodone analgesia in rats treated with BMS182874 / analgesic effect of the agent alone (tail flick latency) / AUC0→360 of tail flick latency: BMS182874 50 μg icv; for effect on morphine analgesia in rats treated with BMS182874: morphine 4 mg/kg sc; for effect on oxycodone analgesia in rats treated with BMS182874 / effect on Oxycodone analgesia / AUC0→360 of tail flick latency / effect of antagonist on Clonidine potentiation of Oxycodone analgesia: oxycodone 4 mg/kg sc; for analgesic effect of the agent alone (tail flick latency) / AUC0→360 of tail flick latency: clonidine 1 mg/kg ip; for effect on Morphine analgesia / effect on Oxycodone analgesia: clonidine 1 mg/kg ip or BMS182874 50 μg icv; for effect on Morphine analgesia: morphine 8 mg/kg sc; for AUC0→360 of tail flick latency: each agent alone: morphine 8 mg/kg sc, Mean±S.E.M., n=6; for effect of antagonist on Clonidine potentiation of Morphine analgesia / effect of antagonist on Clonidine potentiation of Oxycodone analgesia: idazoxan 2 mg/kg ip or yohimbine 2 mg/kg ip given 15 min before clonidine 1 mg/kg ip
α2-adrenergic receptors = conditions: cited from earlier work
[4] = system: patients having coronary artery bypass graft surgery; conditions: cited from earlier work
μ-opioid receptors = μ-opioid receptors (Homo sapiens, UniProt P35372); conditions: relative to morphine; cited from earlier work
μ-opioid receptors, sequence (P35372 whole entry): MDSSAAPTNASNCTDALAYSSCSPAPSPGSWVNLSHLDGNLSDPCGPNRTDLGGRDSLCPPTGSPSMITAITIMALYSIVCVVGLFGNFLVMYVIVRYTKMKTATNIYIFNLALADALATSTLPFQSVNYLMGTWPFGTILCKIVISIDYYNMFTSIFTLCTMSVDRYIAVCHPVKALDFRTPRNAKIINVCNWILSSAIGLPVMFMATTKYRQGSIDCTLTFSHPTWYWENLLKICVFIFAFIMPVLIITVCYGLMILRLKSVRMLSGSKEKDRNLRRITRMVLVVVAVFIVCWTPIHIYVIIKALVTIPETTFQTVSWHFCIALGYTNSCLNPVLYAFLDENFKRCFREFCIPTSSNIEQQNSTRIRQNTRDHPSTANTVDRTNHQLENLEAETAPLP

For “4-amino-N-(3,4-dimethyloxazol-5-yl)-benzenesulfonamide [Sulfisoxazole]”, the solubility [1] is listed as “highly soluble”, the IC50 (ETA receptors) is listed as 600 nM and the “average steady state plasma concentration, mean” value ([2]; 500 mg oral four times a day, healthy volunteers) is listed as 63.4 µg/mL. For the same molecule, the “drug excreted in urine by kidney” value ([2]; in 24 hours) was 95%, the “binding to plasma proteins” value ([2]; in vivo) was “extensively bound to plasma proteins” and the “maximum blood level (adverse reactions more frequent above)” value ([2]; in vivo) was ≤ 200 µg/mL. For the same molecule, the IC50 (ETB receptors) was 22000 nM and the “potentiation of antinociception produced by morphine” value (Male Swiss Webster mice; sulfisoxazole 500 mg/kg oral + morphine 4 mg/kg s.c., AUC) was 14%.

For `Clc1cccc(Cl)c1NC1=NCCN1` [Clonidine, N-(2,6-dichlorophenyl)-4,5-dihydro-1H-imidazol-2-amine], the Ki (I1-imidazoline receptors) is given as 1 nM, the “effect on body temperature” value (Body temperature in mice; clonidine 0.3, 1.0, 3.0 mg/kg i.p., all doses) is given as “decreased body temperature” and the “duration of increased subjective and objective pain thresholds” value (healthy volunteers) is given as “at least 4 hours”. For the same molecule, the “pain score (visual analog scale) after clonidine” value ([3]; clonidine 5 micrograms/kg i.v. in 1st h then 0.3 microgram/kg/h for 11 h, mean±standard error) was 26±3 mm, the “change in mean arterial pressure” value ([3]; clonidine group at T11) was −26±2% and the “pain score (visual analog scale) before clonidine” value ([3]; clonidine group, starting value, mean±standard error) was 42±5 mm. The mean arterial pressure ([3]; clonidine group) was 74±2 mmHg, the “morphine requirement, dose for each patient” value ([3]; clonidine group, i.m. morphine on demand) was 3.8 ± 1 mg and the duration of antinociception (goats) was 5.5 h. The “effect on morphine analgesia in rats treated with BMS182874” value (rats; clonidine 0.1 mg/kg ip) was “did not produce an increase in analgesic effect”, the “effect on oxycodone analgesia in rats treated with BMS182874” value (rats; clonidine 0.1 mg/kg ip) was “did not produce an increase in analgesic effect” and the “effect on morphine analgesia in rats treated with BMS182874” value (rats; clonidine 0.3 mg/kg ip) was “significant (P=0.016 and P=0.011, respectively) increase”. The “effect on oxycodone analgesia in rats treated with BMS182874” value (rats; clonidine 0.3 mg/kg ip) was “significant (P=0.02 and P=0.031, respectively) increase”, the “effect on morphine analgesia in rats treated with BMS182874” value (rats; clonidine 1.0 mg/kg ip) was “significant (P=0.016 and P=0.011, respectively) increase” and the “effect on oxycodone analgesia in rats treated with BMS182874” value (rats; clonidine 1.0 mg/kg ip) was “significant (P=0.02 and P=0.031, respectively) increase”. The “analgesic effect of the agent alone (tail flick latency)” value (rats; rats) was “produced significant (P=0.00086) analgesia”, the “effect on Morphine analgesia” value (rats; rats) was “significantly potentiated; also recorded: Increase” and the “effect on Oxycodone analgesia” value (rats; rats) was “potentiated; also recorded: Increase”. For the same molecule, the “AUC0→360 of tail flick latency” value (rats; rats) was 16.62±1.61 sec.min, the “AUC0→240 min from tail flick latency” value (Male Swiss Webster mice; Example 3, mice, morphine 4 mg/kg s.c., clonidine 2 mg/kg i.p. 30 min before morphine or vehicle, mean±SEM, N=6) was 68.4±12.3 and the “AUC of tail flick latency compared to control mice” value (Male Swiss Webster mice; Example 5 study 2, clonidine 2 mg/kg i.p. alone, sulfisoxazole 1000 mg/kg oral alone) was “produced an increase in AUC”. The “increase in tail flick latency” value (Male Swiss Webster mice; clonidine 0.3 mg/kg plus CMC, 2 hours post injury) was 5 fold, the “tail flick latency at late time” value (Male Swiss Webster mice; clonidine 0.3 mg/kg plus CMC, by 6 hours) was “decreased to approximately the level of vehicle treated animals” and the “tail flick latency, fold above vehicle” value (Male Swiss Webster mice; at 3 hours) was “approximately 3 fold”. The “tail flick latency, fold above vehicle” value (Male Swiss Webster mice; by 5 hours) was 2.5 fold, the “tail flick latency, fold above vehicle” value (Male Swiss Webster mice; immediately after injury) was “up to 4 fold” and the “tail flick latency, fold over vehicle” value (Male Swiss Webster mice; clonidine 1.0 mg/kg i.p., at approximately 6 hours) was 3 fold. For the same molecule, the “tail flick latency, fold over vehicle” value (Male Swiss Webster mice; clonidine 1.0 mg/kg i.p., up to approximately 3 hours) was “approximately 5 fold”, the “enhancement of the antinociception produced by morphine” value (Male Swiss Webster mice; clonidine 2 mg/kg i.p. + morphine 4 mg/kg s.c., AUC) was 42% and the “tail flick latency, fold over vehicle” value (Male Swiss Webster mice; clonidine 3.0 mg/kg i.p., all time points measured) was “approximately 5 fold”. The Ki (α2-adrenergic receptors) was 3.8 nM.

In the case of `CN1CC[C@]23c4c5ccc(O)c4O[C@H]2[C@@H](O)C=C[C@H]3[C@H]1C5.O=S(=O)(O)O` [Morphine, 7,8-didehydro-4,5α-epoxy-17-methylmorphinan-3,6α-diol sulfate], the “morphine dosage in the first 24 h [median (25th-75th percentiles)]” value ([4]; i.v. morphine group (PCA alone, control)) is listed as 37 (30.5-51) mg, the time to extubation ([4]; i.v. morphine group) is listed as 330 (300-360) min and the “morphine dosage in the first 24 h [median (25th-75th percentiles)]” value ([4]; intrathecal morphine group (4 microg/kg plus i.v. PCA morphine)) is listed as 40.5 (15-61.5) mg.

For `COc1ccc2c3c1O[C@H]1C(=O)CC[C@@]4(O)[C@@H](C2)N(C)CC[C@]314.Cl` [Oxycodone, 4,5α-epoxy-14-hydroxy-3-methoxy-17-methylmorphinan-6-one hydrochloride], the “affinity to the μ-opioid receptors, times less than morphine” value (μ-opioid receptors) is given as > 20 times and the “AUC0→360 of tail flick latency” value (rats; rats) is given as 18.23±2.32 sec.min.

For `N=C(N)NC(=O)Cc1c(Cl)cccc1Cl` [guanfacine], the duration of antinociception (goats) is listed as 8 h.

For `COC(=O)[C@@H]1[C@H]2C[C@H]3c4[nH]c5ccccc5c4CCN3C[C@@H]2CC[C@@H]1O` [Yohimbine, 17α-hydroxy-yohimban-16α-carboxylate hydrochloride], the Ki (I1-imidazoline receptors) is listed as 21800 nM, the “effect of antagonist on Clonidine potentiation of Morphine analgesia” value (rats; rats, hydrochloride) is listed as “Blocked” and the “effect of antagonist on Clonidine potentiation of Oxycodone analgesia” value (rats; rats, hydrochloride) is listed as “Blocked”. For the same molecule, the Ki (α2-adrenergic receptors) was 22 nM.

In the case of `c1ccc2c(c1)OCC(C1=NCCN1)O2` (stereo not shown) [Idazoxan, 2-(1,4-benzodioxan-2-yl)-2-imidazoline], the Ki (I1-imidazoline receptors) is given as 186 nM, the “effect of antagonist on Clonidine potentiation of Morphine analgesia” value (rats; rats) is given as “did not affect; also recorded: No effect” and the “effect of antagonist on Clonidine potentiation of Oxycodone analgesia” value (rats; rats) is given as “Blocked”. For the same molecule, the Ki (α2-adrenergic receptors) was 3.6 nM.

With `Cc1noc(NS(=O)(=O)c2cccc3c(N(C)C)cccc23)c1C` [BMS182874, 5-(dimethylamino)-N-(3,4-dimethyl-5-isoxazolyl)-1-naphthalene sulfonamide] the “effect on the fall in temperature induced by clonidine” value (Body temperature in mice; BMS182874 2.0, 10.0, 50.0 μg/kg icv, clonidine 0.3 mg/kg i.p.) was “did not affect”, the “effect on analgesic activity of clonidine” value (rats; rats, BMS182874 50 μg icv 15 min before clonidine 1.0 mg/kg ip) was “did not affect” and the “analgesic effect of the agent alone (tail flick latency)” value (rats; rats) was “did not produce any analgesic effect”. For the same molecule, the “effect on Morphine analgesia” value (rats; rats) was “significantly potentiated; also recorded: Increase”, the “effect on Oxycodone analgesia” value (rats; rats) was “potentiated; also recorded: Increase” and the “AUC0→360 of tail flick latency” value (rats; rats) was 4.47±1.49 sec.min. For the same molecule, the “increase in tail flick latency” value (Male Swiss Webster mice; BMS182874 10 μg/kg icv + clonidine 0.3 mg/kg i.p., 1 and 2 hours post treatment, compared to vehicle of FIG. 5A) was 5 fold, the “increase in tail flick latency” value (Male Swiss Webster mice; BMS182874 10 μg/kg icv + clonidine 0.3 mg/kg i.p., 4 hours post treatment) was “approximately 3 fold” and the “increase in tail flick latency” value (Male Swiss Webster mice; BMS182874 10 μg/kg icv + clonidine 0.3 mg/kg i.p., by 6 hours post treatment) was 2 fold. For the same molecule, the “effect on clonidine analgesia” value (Male Swiss Webster mice; BMS182874 low and high dose (2.0 and 50.0 μg/kg, icv), clonidine 0.3 mg/kg i.p.) was “moderately potentiated” and the “effect on the analgesic effect of clonidine” value (Male Swiss Webster mice; BMS182874 middle dose 10 μg/kg icv, clonidine 0.3 mg/kg i.p.) was “potentiated”.
